26 compounds from patent US8436023B2, “Cyclohexyl-azetidinyl antagonists of CCR2” (Janssen Pharmaceutica N.V., priority 2010, dated 2013) can be followed below.

The target of this experiment is T1, CCR2 (Homo sapiens, UniProt P41597).
T1 construct: host or cells: THP-1 human monocytic cells
T1 sequence (P41597 1-360 isoform P41597-2): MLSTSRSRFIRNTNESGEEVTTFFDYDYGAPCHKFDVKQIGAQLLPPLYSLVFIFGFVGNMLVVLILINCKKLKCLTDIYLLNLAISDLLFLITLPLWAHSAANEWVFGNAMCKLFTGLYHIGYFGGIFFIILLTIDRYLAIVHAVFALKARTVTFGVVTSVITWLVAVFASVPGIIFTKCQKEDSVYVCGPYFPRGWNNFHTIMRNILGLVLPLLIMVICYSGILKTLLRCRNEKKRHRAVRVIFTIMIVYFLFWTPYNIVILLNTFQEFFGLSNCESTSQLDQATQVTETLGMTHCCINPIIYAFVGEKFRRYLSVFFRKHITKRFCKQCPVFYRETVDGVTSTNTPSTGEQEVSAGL
The experiment in a line: MCP-1 Receptor Binding Assay in THP-1 Cells. Conditions: 0.5 nM 125I labeled MCP-1, 2 hours at 30° C., less polar isomer tested where stated, read-out: Inhibition of MCP-1 Binding IC50, CCR2 Binding. The method, then:
MCP-1 Receptor Binding Assay in THP-1 Cells
Human monocytic cell line THP-1 cells were obtained from American Type Culture Collection (Manassas, Va., USA). The THP-1 cells were grown in RPMI-1640 (RPMI: Roswell Park Memorial Institute Medium-cell culture growth media) supplemented with 10% fetal bovine serum in a humidified 5% CO2 atmosphere at 37° C. The cell density was maintained […].
THP-1 (cells were incubated with 0.5 nM ^125I labeled MCP-1 (Perkin-Elmer Life Sciences, Inc. Boston, Mass.) in the presence of varying concentrations of either unlabeled MCP-1 (R & D Systems, Minneapolis, Minn.) or test compound for 2 hours at 30° C. in a 96 well plate. Cells were then harvested onto a filter plate, dried, and 20 μL of Microscint 20 was added to each well. Plates were counted in a TopCount NXT, Microplate Scintillation & Luminescence Counter (Perkin-Elmer Life Sciences, Inc. Boston, Mass.). Blank values (buffer only) were subtracted from all values and drug treated values were compared to vehicle treated values. 1 μM cold MCP-1 was used for nonspecific binding.
Where an IC50 value was not obtained for a particular compound, the percent inhibition is provided at a test concentration of 25 μM.

Molecules are shown by their SMILES.

As usually defined, the IC50 is the concentration that gives 50% inhibition. `Cn1nc(NCC(=O)NC2CN(C3CCC(O)(c4nccs4)CC3)C2)c2cc(C(F)(F)F)ccc21` (centres unmarked) [Example 22, N-[1-(4-Hydroxy-4-thiazol-2-yl-cyclohexyl)-azetidin-3-yl]-2-(1-methyl-5-trifluoromethyl-1H-indazol-3-ylamino)-acetamide]: the IC50 was 13 nM.
On to `CCc1ncc(C2(O)CCC(N3CC(NC(=O)CNc4nn(C)c5ccc(C(F)(F)F)cc45)C3)CC2)s1` (centres unmarked) [Example 23, N-{1-[4-(2-Ethyl-thiazol-5-yl)-4-hydroxy-cyclohexyl]-azetidin-3-yl}-2-(1-methyl-5-trifluoromethyl-1H-indazol-3-ylamino)-acetamide], for which the IC50 worked out at 180 nM.
On to `CC(C)c1ncc(C2(O)CCC(N3CC(NC(=O)CNc4nn(C)c5ccc(C(F)(F)F)cc45)C3)CC2)s1` (centres unmarked) [Example 24, N-{1-[4-Hydroxy-4-(2-isopropyl-thiazol-5-yl)-cyclohexyl]-azetidin-3-yl}-2-(1-methyl-5-trifluoromethyl-1H-indazol-3-ylamino)-acetamide], for which the IC50 stood at 5.3 nM.
In the case of `Cn1cc(C2(O)CCC(N3CC(NC(=O)CNc4nn(C)c5ccc(C(F)(F)F)cc45)C3)CC2)cn1` (centres unmarked) [Example 25, N-{1-[4-Hydroxy-4-(1-methyl-1H-pyrazol-4-yl)-cyclohexyl]-azetidin-3-yl}-2-(1-methyl-5-trifluoromethyl-1H-indazol-3-ylamino)-acetamide], the IC50 was found to be 200 nM.
For the compound `Cn1nc(NCC(=O)NC2CN(C3CCC(O)(c4ncco4)CC3)C2)c2cc(C(F)(F)F)ccc21` (centres unmarked) [Example 26, N-[1-(4-Hydroxy-4-oxazol-2-yl-cyclohexyl)-azetidin-3-yl]-2-(1-methyl-5-trifluoromethyl-1H-indazol-3-ylamino)-acetamide], the IC50 is 146 nM.
For `Cn1ccnc1C1(O)CCC(N2CC(NC(=O)CNc3nn(C)c4ccc(C(F)(F)F)cc34)C2)CC1` (centres unmarked) [Example 27, N-{1-[4-Hydroxy-4-(1-methyl-1H-imidazol-2-yl)-cyclohexyl]-azetidin-3-yl}-2-(1-methyl-5-trifluoromethyl-1H-indazol-3-ylamino)-acetamide], the IC50 was 1400 nM.
On to `Cc1ncc(C2(O)CCC(N3CC(NC(=O)CNc4nn(C)c5ccc(C(F)(F)F)cc45)C3)CC2)s1` (centres unmarked) [Example 28, N-{-[4-Hydroxy-4-(2-methyl-thiazol-5-yl)-cyclohexyl]-azetidin-3-yl}-2-(1-methyl-5-trifluoromethyl-1H-indazol-3-ylamino)-acetamide], for which the IC50 is 19 nM.
For `Cn1nc(NCC(=O)NC2CN(C3CCC(O)(c4ccccc4)CC3)C2)c2cc(C(F)(F)F)ccc21` (centres unmarked) [Example 29, N-[1-(4-Hydroxy-4-phenyl-cyclohexyl)-azetidin-3-yl]-2-(1-methyl-5-trifluoromethyl-1H-indazol-3-ylamino)-acetamide] the value was 19 nM.
In the case of `Cc1ccc(C2(O)CCC(N3CC(NC(=O)CNc4nn(C)c5ccc(C(F)(F)F)cc45)C3)CC2)cn1` (centres unmarked) [Example 30, N-{1-[4-Hydroxy-4-(6-methyl-pyridin-3-yl)-cyclohexyl]-azetidin-3-yl}-2-(1-methyl-5-trifluoromethyl-1H-indazol-3-ylamino)-acetamide], the IC50 came to 7.5 nM.
Under `Cn1nc(NCC(=O)NC2CN(C3CCC(NC(=O)OC(C)(C)C)CC3)C2)c2cc(C(F)(F)F)ccc21` (centres unmarked) [Example 31, (4-{3-[2-(1-Methyl-5-trifluoromethyl-1H-indazol-3-ylamino)-acetylamino]-azetidin-1-yl}-cyclohexyl)-carbamic acid tert-butyl ester] stands 76 nM; under `CCOC(=O)C1CCC(N2CC(NC(=O)CNc3nn(C)c4ccc(C(F)(F)F)cc34)C2)CC1` (centres unmarked) [Example 32, 4-{3-[2-(1-Methyl-5-trifluoromethyl-1H-indazol-3-ylamino)-acetylamino]-azetidin-1-yl}-cyclohexane carboxylic acid ethyl ester], 13 nM; under `Cn1nc(NCC(=O)NC2CN(C3CCC(CO)CC3)C2)c2cc(C(F)(F)F)ccc21` (centres unmarked) [Example 33, N-[1-(4-Hydroxymethyl-cyclohexyl)-azetidin-3-yl]-2-(1-methyl-5-trifluoromethyl-1H-indazol-3-ylamino)-acetamide], 44 nM.
`CCOCC1CCC(N2CC(NC(=O)CNc3nn(C)c4ccc(C(F)(F)F)cc34)C2)CC1` (centres unmarked) [Example 34, N-[1-(4-Ethoxymethyl-cyclohexyl)-azetidin-3-yl]-2-(1-methyl-5-trifluoromethyl-1H-indazol-3-ylamino)-acetamide]: the IC50 is 27 nM.
Consider `CCOC1CCC(N2CC(NC(=O)CNc3nn(C)c4ccc(C(F)(F)F)cc34)C2)CC1` (centres unmarked) [Example 36, N-[1-(4-Ethoxy-cyclohexyl)-azetidin-3-yl]-2-(1-methyl-5-trifluoromethyl-1H-indazol-3-ylamino)-acetamide], for which the IC50 stood at 228 nM.
For the compound `C=CCOC1CCC(N2CC(NC(=O)CNc3nn(C)c4ccc(C(F)(F)F)cc34)C2)CC1` (centres unmarked) [Example 37, N-[1-(4-Allyloxy-cyclohexyl)-azetidin-3-yl]-2-(1-methyl-5-trifluoromethyl-1H-indazol-3-ylamino)-acetamide], the concentration for half-maximal inhibition (IC50) was found to be 136 nM.
As to `Cn1nc(NCC(=O)NC2CN(C3CCC(C#N)CC3)C2)c2cc(C(F)(F)F)ccc21` (centres unmarked) [Example 38, N-[1-(4-Cyano-cyclohexyl)-azetidin-3-yl]-2-(1-methyl-5-trifluoromethyl-1H-indazol-3-ylamino)-acetamide], the IC50 was 150 nM.
`Cn1nc(NCC(=O)NC2CN(C3CCC(C(N)=O)CC3)C2)c2cc(C(F)(F)F)ccc21` (centres unmarked) [Example 39, 4-{3-[2-(1-Methyl-5-trifluoromethyl-1H-indazol-3-ylamino)-acetylamino]-azetidin-1-yl}-cyclohexane carboxylic acid amide]: the IC50 is 380 nM.
Under `Cn1nc(NCC(=O)NC2CN(C3CCC(C(=O)NCCO)CC3)C2)c2cc(C(F)(F)F)ccc21` (centres unmarked) [Example 40, 4-{3-[2-(1-Methyl-5-trifluoromethyl-1H-indazol-3-ylamino)-acetylamino]-azetidin-1-yl}-cyclohexane carboxylic acid (2-hydroxy-ethyl)-amide] stands 300 nM.
Take `O=C(CNc1n[nH]c2ccc(C(F)(F)F)cc12)NC1CN(C2CCC(O)(c3cccnc3)CC2)C1` (centres unmarked) [Example 41, N-[1-(4-Hydroxy-4-pyridin-3-yl-cyclohexyl)-azetidin-3-yl]-2-(5-trifluoromethyl-1H-indazol-3-ylamino)-acetamide]: the IC50 came to 31 nM.
For `O=C(CNc1n[nH]c2ccc(C(F)(F)F)cc12)NC1CN(C2CCC(O)(c3cncs3)CC2)C1` (centres unmarked) [Example 42, N-[1-(4-Hydroxy-4-thiazol-5-yl-cyclohexyl)-azetidin-3-yl]-2-(5-trifluoromethyl-1H-indazol-3-ylamino)-acetamide] the value was 16 nM; for `Cc1ccc(C2(O)CCC(N3CC(NC(=O)CNc4n[nH]c5ccc(C(F)(F)F)cc45)C3)CC2)cn1` (centres unmarked) [Example 43, N-{1-[4-Hydroxy-4-(6-methyl-pyridin-3-yl)-cyclohexyl]-azetidin-3-yl}-2-(5-trifluoromethyl-1H-indazol-3-ylamino)-acetamide], 5.8 nM; for `COc1ccc(C2(O)CCC(N3CC(NC(=O)CNc4n[nH]c5ccc(C(F)(F)F)cc45)C3)CC2)cn1` (centres unmarked) [Example 44, N-{1-[4-Hydroxy-4-(6-methoxy-pyridin-3-yl)-cyclohexyl]-azetidin-3-yl}-2-(5-trifluoromethyl-1H-indazol-3-ylamino)-acetamide], 16 nM.
`O=C(CNc1n[nH]c2ccc(C(F)(F)F)cc12)NC1CN(C2CCC(c3ccc4c(c3)OCO4)CC2)C1` (centres unmarked) [Example 45, N-[1-(4-Benzo[1,3]dioxol-5-yl-cyclohexyl)-azetidin-3-yl]-2-(5-trifluoromethyl-1H-indazol-3-ylamino)-acetamide]: the IC50 came to 6.6 nM.
In the case of `NC(=O)Cc1ccc(C2CCC(N3CC(NC(=O)CNc4n[nH]c5ccc(C(F)(F)F)cc45)C3)CC2)cc1` (centres unmarked) [Example 47, 2-[4-(4-{3-[2-(5-Trifluoromethyl-1H-indazol-3-ylamino)-acetylamino]-azetidin-1-yl}-cyclohexyl)-phenyl]-acetamide], the IC50 stood at 12 nM.
Consider `N#CC1CCC(N2CC(NC(=O)CNc3n[nH]c4ccc(C(F)(F)F)cc34)C2)CC1` (centres unmarked) [Example 48, N-[1-(4-Cyano-cyclohexyl)-azetidin-3-yl]-2-(5-trifluoromethyl-1H-indazol-3-ylamino)-acetamide], for which the IC50 was 430 nM.
Regarding `CCOC(=O)C1CCC(N2CC(NC(=O)CNc3n[nH]c4ccc(C(F)(F)F)cc34)C2)CC1` (centres unmarked) [Example 50, 4-{3-[2-(5-Trifluoromethyl-1H-indazol-3-ylamino)-acetylamino]-azetidin-1-yl}-cyclohexane carboxylic acid ethyl ester], the IC50 is 27 nM.
